Experimental data reported in patent US7723473B2, “Peptide antagonists of TGF-beta family members and therapeutic uses thereof” (St. Louis University, priority 1997, dated 2010).
“Also recorded” adds a separate entry of the source.

Columns and labels:
[1] = test system: excision wounds; experiment: Pig excision wound model; type: in vivo; settings: for deposition / immunostaining of fibronectin in excision wounds / deposition / immunostaining of type I collagen in excision wounds: post-excision day 30 (legend: day 28), immunohistochemistry
Protocol: (§1) Preparation of IntraSite® gel containing TGF-β peptantagonist (peptide TGF-beta antagonist). 1 ml of sterile 6 mM peptide β1^25 (41-65) in phosphate buffered saline or 1 ml of sterile phosphate buffered saline was vigorously mixed with 3 ml of IntraSite® gel using two 10 ml syringes connected with a three-way connector. […] However, 1.5 mM of peptide β1^25 (41-65) was used throughout the experiments described below.
Excision wound model. Four pigs received intramuscular injection of ketamine, strenil® and atropine as described above. Six excision injuries were generated by removing full-thickness sections of skin (3×3 cm) from standardized sites on the back of each animal using a scapel. Three rabbits, were anesthetized by intramuscular injection of ketamine (5 mg/kg). Three excision injuries were produced in each by removing full-thickness sections of skin (0.5×1 cm) from each ear. After wounds, a thin layer of IntraSite® gel containing peptide β1^25 (41-65) was applied to alternating wounds on each animal and IntraSite® gel+buffer was applied to the other half. The excision wounds were then dressed with a paraffin gauze. For pig experiments, the dressing was changed every two days for the first 10 days and twice a week for the next 30 days. For rabbit experiments, the dressing was changed for the first 3 days. Gel containing peptide β1^25 (41-65) or control gel was applied at each dressing change.
(§2) Assessment of wound healing. Wound healing was assessed by evaluating the rates of wound re-epithelization and contraction. The open wound area and the area enclosed by the normal hair bearing skin were measured using the macrophotography technique (Ref. 14). The healing rate was monitored every two days for the first 10 days and twice a week for 30 more days. Wound reepithelialization as a percent of the original wound size was calculated using the following formula:
(§3) [formula] where C=rate of wound contraction in percent; Al=wound area as measured immediately following the burn or excision injury; An=area enclosed by normal hair bearing skin.
Immunohistochemistry. The wounds were frozen immediately after being removed from animals on post-excision day 30. Serial sections were placed on polylysine-coated slides. The sections containing wound areas were stained with hematoxylin/eosin and monoclonal antibodies to type I collagen and fibronectin and biotin-conjugated rabbit anti-mouse IgG/streptavidin-conjugated horseradish peroxidase (Ref. 16). The stained sections were examined and photographed by light microscopy.

[2] = Observation of deleterious effects in treated animals; type: in vivo, pig, rabbit; settings: topical, any animal
Protocol: (§4) Burn wound model. Four pigs weighing 20-25 kg were anesthetized by intramuscular injection of ketamine (5 mg/kg), strenil® (cazaporonum) (20 mg/kg) and atropine (5 mg/kg). Six uniform burn wounds (110° C., 30 sec) were then made symmetrically on the back of each pig using a modified soldering iron (Ref. 15) with a flat contact area of 20 cm^2. […] After wounding, a thin layer of Intrasite®) gel containing either peptide β1^25 (41-65), buffer or nothing else was applied to the wounds. All wounds were dressed with paraffin gauze. The dressing was changed every two days for the first 10 days and twice a week for the next 30 days. Gel comprising peptide β1^25 (41-65) and control gel were applied and wound measurements were made at each dressing change.
Excision wound model. Four pigs received intramuscular injection of ketamine, strenil® and atropine as described above. Six excision injuries were generated by removing full-thickness sections of skin (3×3 cm) from standardized sites on the back of each animal using a scapel. Three rabbits, were anesthetized by intramuscular injection of ketamine (5 mg/kg). Three excision injuries were produced in each by removing full-thickness sections of skin (0.5×1 cm) from each ear. […]

[3] = test system: burn wounds; experiment: Pig burn wound model; type: in vivo; settings: for re-epithelialization / healing rate versus vehicle: after post-burn day 10; for scarring versus vehicle-only control wounds: post-burn day 35 (and 41)
Protocol: as §1, §4, §2
[formula] where E=rate of re-epithelialization in percent; An=area enclosed by the normal hair bearing skin on a given post-burn day; Ao=area of open wound on the same day as was measured. Wound contraction was calculated using the following formula:
as §3
Measurement of scar. The volumes of scar tissue were estimated by multiplying their thickness by the size of the scar on post-burn day 41 in pigs and post-excision day 10 in rabbits.

[4] = test system: mink lung epithelial cells; experiment: Mink lung epithelial cell growth measured by DNA synthesis without added TGF-β1 (agonist activity); type: cell-based
Protocol: [Methyl-^3H]thymidine Incorporation—Mink lung epithelial cells grown on 24-well clustered dishes were incubated with various concentrations of TGF-β1 in the presence and absence of peptide β1^25 (41-65) or with various concentrations of peptide β1^25 (41-65)-CA, and peptide β1^25 (41-65)-BSA in DMEM containing 0.1% fetal calf serum. After 16 hr at 37° C., the cells were pulsed with 1 μCi/ml of [methyl-^3H]thymidine for 4 hr. The cells were then washed twice with 1 ml of 10% trichloroacetic acid and once with 0.5 ml of ethanol:ether (2:1, v/v). The cells were then dissolved in 0.4 ml of 0.2 N NaOH and counted with a liquid scintillation counter.

[5] = test system: PAI-1 expression; experiment: PAI-1 expression in mink lung epithelial cells (Northern blot); type: cell-based; settings: 0.25 ρM and 2.5 ρM TGF-β1
Protocol: RNA Analysis—Mink lung epithelial cells were grown overnight in 12-well clustered dishes in DMEM containing 10% fetal calf serum. The medium was then changed to DMEM containing 0.1% fetal calf serum and the cells were incubated with 0.25 and 2.5 ρM TGF-β1 in the presence of various concentrations of peptide β1^25 (41-65) for 2.5 hr. Total cellular RNA was extracted using RNAzol B (Tel-Test Inc.) according to the manufacturer's protocol. RNA was electrophoresed in 1.2% agarose-formaldehyde gel and transferred to Duralon-UV membranes using 10×SSC. The membranes were probed at 42° C. with a random-primed, radiolabeled 1-kb fragment from the Hind III and NeoI digests of PAI-1 cDNA and glyceraldehyde-3-phosphate dehydrogenase (“GAPDH”) cDNA. The blots were washed with 0.1×SSC containing 0.1% SDS at room temperature.

[6] = test system: type I, type II, and type III TGF-β receptors; experiment: 125I-TGF-β1-affinity labeling of other cell-surface TGF-β receptor types in mink lung epithelial cells; type: binding; settings: peptide at 2.3 μM
Protocol: ^125I-TGF-β1-affinity labeling of cell-surface TGF-β receptors in mink lung epithelial cells. Mink lung epithelial cells grown on 60-mm Petri dishes were incubated with 0.1 nM […] the presence of various concentrations of peptide β1^25 (41-65) or peptide β3^25 (41-65) in binding buffer. After 2.5 hr at 0° C., ^125I-TGF-β1-affinity labeling was carried out in the presence of DSS as described. The ^125I-TGF-β1-affinity-labeled TGF-β receptors were analyzed by 5% SDS-polyacrylamide gel electrophoresis under reducing conditions and autoradiography.

[7] = 1.5 mM in gel, topical, listed as TGF-β peptantagonist

ANFCLGPCPYIWSLDTQYSKVLALY [peptide β1^25 (41-65)]
contraction of the wound ([1]; 1.5 mM in gel, topical): attenuated contraction | vertical (length of the healed wound) contraction versus vehicle only ([1]; 1.5 mM in gel, topical): less vertical | vertical (length of the healed wound) contraction versus vehicle only [1, 7]: contracted vertically less; also recorded: less vertical | deposition / immunostaining of fibronectin in excision wounds [1]: diminished the deposition | deposition / immunostaining of type I collagen in excision wounds [1]: diminished the deposition | deposition / immunostaining of fibronectin in excision wounds ([1]; listed as TGF-β peptantagonist): less intensity of staining | deposition / immunostaining of type I collagen in excision wounds ([1]; listed as TGF-β peptantagonist): less intensity of staining | horizontal (width of the healed wound) contraction ([1]; post-excision day 41): almost contracted completely | deleterious effects [2]: no apparent deleterious effects | wound contraction versus vehicle only ([3]; 1.5 mM in gel, topical): less contraction | re-epithelialization / healing rate versus vehicle ([3]; 1.5 mM in gel, topical): rapid re-epithelialization | re-epithelialization / healing rate versus vehicle [3, 7]: healed faster | re-epithelialization complete ([3]; 1.5 mM in gel, topical, n=4): 26±2 post-burn day | wound contraction versus vehicle only [3, 7]: contracted significantly | accelerating wound healing and reducing scarring ([3]; 0.75 and 1.5 mM peptide in gel, topical): effective | open wound ([3]; post-burn day 23): very little open wound | wound contraction ([3]; post-burn day 33, 1.5 mM in gel, n=4): 50±4% | open wound ([3]; post-burn day 34): very little open wound | scarring versus vehicle-only control wounds [3]: less scarring | scarring versus vehicle-only control wounds ([3]; listed as TGF-β peptantagonist): less scar formation | volume of scar tissue ([3]; post-burn day 41): 0.07±0.02 cm^3 | effect on DNA synthesis in the absence of TGF-β1 ([4]; 0.1 μM to 36 μM peptide): did not have an effect | reversal of growth inhibition induced by 0.2 μM β1^25 (41-65)-CA ([4]; 10 μM peptide, data not shown): abolished | blocking of PAI-1 expression stimulated by TGF-β1 [5]: completely blocked | inhibition of 125I-TGF-β1-affinity labeling of other TGF-β receptor types [6]: 30-40%
